The values that follow come from US20070043034A1, “Chlorine Ion Uptake Modulators and Uses Thereof” (priority 2005, published 2007).

In this assay the test system is hypoxia-induced seizures. Description: Hypoxia-induced seizures in P10 rats. The assay is classed as in vivo, rat. As to conditions: hypoxia 15 min, i.p., Bumetanide 0.15 mg/kg 10 min prior, Phenobarbital 15 mg/kg 30 min prior, versus vehicle. An excerpt: Litters of male Long-Evans hooded rats from Charles River Laboratories (Wilmington, Mass., USA) were used in this study. Each litter was divided into five treatment groups: no hypoxia control, hypoxia/DMSO in PBS, hypoxia/Bumetanide only, hypoxia/Phenobarbital only, and hypoxia/combination of Bumetanide and Phenobarbital. One to two litters were used for each run of the experiment, and each litter was housed together until the weaning age of P21.
Rats at P10 (˜18 to 22 grams) were exposed to global hypoxia for 15 minutes in an airtight chamber into which N2 gas was rapidly infused. The oxygen concentration was maintained at 7% for 8 minutes, 5% for 6 minutes, and 4% for 1 minute before termination of hypoxia, during which the animals were immediately removed from the chamber and exposed to room air. For each animal during hypoxia, a record of the total number of myoclonic seizures and the total number and length of time in seconds of tonic clonic seizures were kept. For analysis purposes, time lengths of each tonic clonic seizure for each animal were pooled to obtain total seizure time. […] The body temperature of all animals was maintained at 34-40° C. on a warming blanket; the temperatures of each animal were also recorded before and after submission to hypoxia. […]

Consider `CCCCNc1cc(C(=O)O)cc(S(N)(=O)=O)c1Oc1ccccc1` [bumetanide, 3-(aminosulfonyl)-5-(butylamino)-4-phenoxybenzoic acid], for which the average seizing time result was “did not significantly reduce”.
